Assay results published in ChEMBL document CHEMBL2331094 (Bioorg Med Chem Lett, 2013).

Columns and labels:
Format in all cases: cell-based
[1] = molecular target: T1, Lysophosphatidic acid receptor 4 (Homo sapiens, UniProt Q99677); assay: Intrinsic activity at human LPA4 receptor transfected in HEK293 cells after 1 hr by TGFalpha shedding assay in presence of Ki16425 relative to LPA
[2] = molecular target: T2, Lysophosphatidic acid receptor 5 (Homo sapiens, UniProt Q9H1C0); assay: Intrinsic activity at human LPA5 receptor transfected in HEK293 cells after 1 hr by TGFalpha shedding assay in presence of Ki16425 relative to LPA
[3] = molecular target: T3, Lysophosphatidic acid receptor 6 (Homo sapiens) (UniProt P43657); assay: Intrinsic activity at human LPA6 receptor transfected in HEK293 cells after 1 hr by TGFalpha shedding assay in presence of Ki16425 relative to LPA
T3 sequence (whole entry): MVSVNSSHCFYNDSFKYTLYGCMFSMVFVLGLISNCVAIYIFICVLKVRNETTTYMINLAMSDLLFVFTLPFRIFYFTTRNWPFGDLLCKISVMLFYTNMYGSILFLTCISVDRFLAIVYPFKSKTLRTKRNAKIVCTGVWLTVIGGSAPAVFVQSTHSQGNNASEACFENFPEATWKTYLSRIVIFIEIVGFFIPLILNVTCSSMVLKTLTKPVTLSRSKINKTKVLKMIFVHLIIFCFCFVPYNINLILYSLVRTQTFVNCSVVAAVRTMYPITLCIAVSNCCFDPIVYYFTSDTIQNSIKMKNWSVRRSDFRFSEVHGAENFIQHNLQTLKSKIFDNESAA

[4] = molecular target: T4, Lysophosphatidic acid receptor 3 (Homo sapiens) (UniProt Q9UBY5); assay: Intrinsic activity at human LPA3 receptor transfected in HEK293 cells after 1 hr by TGFalpha shedding assay relative to LPA
T4 sequence (whole entry): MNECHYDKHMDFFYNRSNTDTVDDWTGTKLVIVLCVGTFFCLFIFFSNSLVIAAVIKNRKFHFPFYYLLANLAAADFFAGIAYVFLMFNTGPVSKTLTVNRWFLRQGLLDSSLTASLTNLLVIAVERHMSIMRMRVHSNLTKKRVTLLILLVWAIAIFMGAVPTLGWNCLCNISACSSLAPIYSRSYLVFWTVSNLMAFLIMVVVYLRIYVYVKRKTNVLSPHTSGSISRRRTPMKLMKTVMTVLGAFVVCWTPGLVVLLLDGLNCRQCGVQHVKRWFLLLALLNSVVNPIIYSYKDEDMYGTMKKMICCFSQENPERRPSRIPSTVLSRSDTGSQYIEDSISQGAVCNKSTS

[5] = molecular target: T5, Lysophosphatidic acid receptor 1 (Homo sapiens, UniProt Q92633); assay: Intrinsic activity at human LPA1 receptor transfected in HEK293 cells after 1 hr by TGFalpha shedding assay relative to LPA
[6] = molecular target: T6, Lysophosphatidic acid receptor 2 (Homo sapiens, UniProt Q9HBW0); assay: Intrinsic activity at human LPA2 receptor transfected in HEK293 cells after 1 hr by TGFalpha shedding assay relative to LPA
[7] = molecular target: T5, Lysophosphatidic acid receptor 1; assay: Agonist activity at human LPA1 receptor transfected in HEK293 cells after 1 hr by TGFalpha shedding assay
[8] = molecular target: T7, Lysophosphatidic acid receptor 6 (Homo sapiens, UniProt P43657); assay: Agonist activity at human LPA6 receptor transfected in HEK293 cells after 1 hr by TGFalpha shedding assay in presence of Ki16425
T7 sequence (P43657 whole entry): T3 sequence (whole entry)

[9] = molecular target: T2, Lysophosphatidic acid receptor 5; assay: Agonist activity at human LPA5 receptor transfected in HEK293 cells after 1 hr by TGFalpha shedding assay in presence of Ki16425
[10] = molecular target: T1, Lysophosphatidic acid receptor 4; assay: Agonist activity at human LPA4 receptor transfected in HEK293 cells after 1 hr by TGFalpha shedding assay in presence of Ki16425
[11] = molecular target: T8, Lysophosphatidic acid receptor 3 (Homo sapiens, UniProt Q9UBY5); assay: Agonist activity at human LPA3 receptor transfected in HEK293 cells after 1 hr by TGFalpha shedding assay
T8 sequence (Q9UBY5 whole entry): T4 sequence (whole entry)

[12] = molecular target: T6, Lysophosphatidic acid receptor 2; assay: Agonist activity at human LPA2 receptor transfected in HEK293 cells after 1 hr by TGFalpha shedding assay

T5 sequence (Q92633 whole entry): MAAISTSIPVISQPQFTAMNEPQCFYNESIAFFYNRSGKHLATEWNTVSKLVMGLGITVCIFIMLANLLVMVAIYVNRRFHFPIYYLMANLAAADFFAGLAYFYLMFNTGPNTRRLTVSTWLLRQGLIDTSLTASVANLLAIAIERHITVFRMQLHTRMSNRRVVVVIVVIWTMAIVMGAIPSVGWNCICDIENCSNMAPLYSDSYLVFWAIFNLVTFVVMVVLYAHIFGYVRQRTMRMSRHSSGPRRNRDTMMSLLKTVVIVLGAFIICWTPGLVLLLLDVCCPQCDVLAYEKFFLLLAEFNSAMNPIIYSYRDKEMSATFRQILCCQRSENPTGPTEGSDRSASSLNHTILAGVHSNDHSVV
T1 sequence (Q99677 whole entry): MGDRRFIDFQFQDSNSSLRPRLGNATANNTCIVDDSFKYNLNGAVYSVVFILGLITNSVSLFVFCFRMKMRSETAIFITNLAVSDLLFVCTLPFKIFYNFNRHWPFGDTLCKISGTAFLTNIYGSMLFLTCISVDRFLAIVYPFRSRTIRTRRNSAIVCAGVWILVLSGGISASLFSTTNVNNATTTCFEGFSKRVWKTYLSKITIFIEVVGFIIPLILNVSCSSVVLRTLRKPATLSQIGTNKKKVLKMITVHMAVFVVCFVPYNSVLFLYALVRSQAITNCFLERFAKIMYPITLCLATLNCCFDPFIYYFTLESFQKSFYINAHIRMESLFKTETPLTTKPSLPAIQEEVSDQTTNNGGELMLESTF
T6 sequence (Q9HBW0 whole entry): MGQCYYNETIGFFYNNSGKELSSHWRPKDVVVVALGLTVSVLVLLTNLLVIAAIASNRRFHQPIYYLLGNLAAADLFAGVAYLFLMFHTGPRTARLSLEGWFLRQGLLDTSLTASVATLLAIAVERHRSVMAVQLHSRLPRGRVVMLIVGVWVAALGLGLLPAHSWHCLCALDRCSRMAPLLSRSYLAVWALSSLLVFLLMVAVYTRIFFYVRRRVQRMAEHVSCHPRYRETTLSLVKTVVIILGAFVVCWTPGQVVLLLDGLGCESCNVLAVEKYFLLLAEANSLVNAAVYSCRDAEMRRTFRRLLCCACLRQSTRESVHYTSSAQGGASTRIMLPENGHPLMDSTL
T2 sequence (Q9H1C0 whole entry): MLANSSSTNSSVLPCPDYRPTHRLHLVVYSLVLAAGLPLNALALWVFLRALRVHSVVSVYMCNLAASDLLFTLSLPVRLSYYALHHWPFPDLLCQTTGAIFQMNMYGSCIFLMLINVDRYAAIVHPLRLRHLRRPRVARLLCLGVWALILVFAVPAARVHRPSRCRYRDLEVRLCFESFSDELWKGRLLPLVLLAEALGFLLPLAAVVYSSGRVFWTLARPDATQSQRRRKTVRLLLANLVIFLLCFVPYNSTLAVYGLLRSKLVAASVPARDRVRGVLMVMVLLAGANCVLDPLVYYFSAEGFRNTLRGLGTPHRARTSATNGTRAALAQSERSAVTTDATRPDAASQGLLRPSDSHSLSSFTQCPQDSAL

Structure (SMILES) | Intrinsic activity [1] | Intrinsic activity [2] | Intrinsic activity [3] | Intrinsic activity [4] | Intrinsic activity [5] | Intrinsic activity [6] | EC50 [7] [nM] | EC50 [8] [nM] | EC50 [9] [nM] | EC50 [10] [nM] | EC50 [11] [nM] | EC50 [12] [nM]
CCCCCCCC/C=C\CCCCCCCC(=O)OC[C@@H](O)COP(=O)(O)O [LYSOPHOSPHATIDIC ACID] | 1 | 1 | 1 | 1 | 1 | 1 | 18 |  |  |  |  | 
CCCCCCCCCCCCCCCCCCOCC(COP(O)(O)=S)OC (racemic) | 2.2 | 114 | 27 | 570 | 1.63 | 0.26 | 8.4 | 39 | 0.83 | 3.8 | 0.23 | 100
CCCCCCCCCCCCCCCCCC(=O)OC[C@H](COP(O)(O)=S)OC | 1.6 | 8.4 | 19.3 | 260 | 0.61 | 0.178 | 24 | 58 | 8.2 | 4.9 | 0.44 | 149
CCCCCCCCCCCCCCCCCOC(COC)COP(O)(O)=S (racemic) | 2 | 26 | 15.1 | 340 | 1.29 | 0.3 | 11.1 | 78 | 3 | 4.5 | 0.39 | 117
CCCCCCCCCCCCCCCCCCOC[C@H](COP(O)(O)=S)OC | 2.1 | 16 | 10.9 | 140 | 0.57 | 0.088 | 31 | 105 | 6.1 | 4.9 | 1.08 | 350
CCCCCCCCCCCCCCCCCC(=O)OCC(COP(=O)(O)S)OC (racemic) | 2.6 | 11.1 | 13.3 | 410 | 0.79 | 0.188 | 16.5 | 86 | 6.3 | 3.3 | 0.28 | 161
CCCCCCCCCCCCCCCCOC(COC)COP(O)(O)=S (configuration not stated) | 2.1 | 300 | 10.9 | 300 | 0.38 | 0.046 | 26 | 66 | 0.26 | 3.8 | 0.36 | 116
CCCCCCCCCCCCCCCCCCOC[C@@H](COP(O)(O)=S)OC | 2.7 | 23 | 11 | 390 | 1.2 | 0.34 | 10.1 | 90 | 3.4 | 3.5 | 0.37 | 110
CCCCCCCCCCCCCCCCCC(=O)OC[C@@H](COP(O)(O)=S)OC | 3.1 | 14.8 | 13.1 | 500 | 0.94 | 0.25 | 14.7 | 79 | 5.1 | 2.7 | 0.27 | 112
CCCCCCCCCCCCCCCC(=O)OC[C@@H](O)COP(=O)(O)O | 0.14 | 1.04 | 0.25 | 0.102 | 0.24 | 0.092 | 71 | 930 | 68 | 84 | 580 | 290
CCCCCCCCCCCCCCCCCC(=O)OC(COC)COP(O)(O)=S (racemic) | 3.9 | 41 | 14.3 | 600 | 1.15 | 0.165 | 12.2 | 76 | 1.81 | 2.4 | 0.21 | 146
